# Target: Pseudomonas aeruginosa LpxC enzyme (Pseudomonas aeruginosa (strain ATCC 15692 / DSM 22644 / CIP 104116 / JCM 14847 / LMG 12228 / 1C / PRS 101 / PAO1), UniProt P47205)
# Assay: biochemical
# Type: biochemical
# Settings: not given
row,Compound,IC50 [nM]
1,"CNC(=O)C(C(=O)NO)N(C)C(=O)c1ccc(C#Cc2ccc(CN3C4CCC3CC4)cc2)cc1 (stereo not shown) [Compound 527, 2-{[(4-{[4-(7-azabicyclo[2.2.1]hept-7-ylmethyl)phenyl]ethynyl}phenyl)carbonyl](methyl)amino}-N-hydroxy-N′-methylpropanediamide]",10 to 100

# Same assay, conditions: class symbols A/B/C by IC50; Table 3; read-out: Enzyme inhibitory activity (inhibitory activity on Pseudomonas aeruginosa LpxC enzyme)
row,Compound,IC50 [nM]
1,"CNC(=O)C(C(=O)NO)N(C)C(=O)c1ccc(C#Cc2ccc(CN(C)Cc3ccccc3)cc2)cc1 (stereo not shown) [Compound 495, 2-[({4-[(4-{[benzyl(methyl)amino]methyl}phenyl)ethynyl]phenyl}carbonyl)(methyl)amino]-N-hydroxy-N′-methylpropanediamide]",< 10
2,"CNC(=O)C(C(=O)NO)N(C)C(=O)c1ccc(C#Cc2cnn(C)c2)cc1 (stereo not shown) [Compound 504, N-hydroxy-N′-methyl-2-[methyl({4-[(1-methyl-1H-pyrazol-4-yl)ethynyl]phenyl}carbonyl)amino]propanediamide]",10 to 100
3,"CCO/N=C/c1cc(C#Cc2ccc(C(=O)N(C)C(C(=O)NC)C(=O)NO)cc2)co1 (stereo not shown) [Compound 506, 2-[{[4-({5-[(E)-(ethoxyimino)methyl]furan-3-yl}ethynyl)phenyl]carbonyl}(methyl)amino]-N-hydroxy-N′-methylpropanediamide]",< 10
4,"CNC(=O)C(C(=O)NO)N(C)C(=O)c1ccc(C#CC#Cc2cnn(C)c2)cc1 (stereo not shown) [Compound 511, N-hydroxy-N′-methyl-2-[methyl({4-[4-(1-methyl-1H-pyrazol-4-yl)buta-1,3-diyn-1-yl]phenyl}carbonyl)amino]propanediamide]",< 10
5,"CNC(=O)C(C(=O)NO)N(C)C(=O)c1ccc(C#Cc2ccc(CN3CCCC(C)(C)C3)cc2)cc1 (stereo not shown) [Compound 513, 2-[{[4-({4-[(3,3-dimethylpiperidin-1-yl)methyl]phenyl}ethynyl)phenyl]carbonyl}(methyl)amino]-N-hydroxy-N′-methylpropanediamide]",< 10
6,"CNC(=O)C(C(=O)NO)N(C)C(=O)c1ccc(C#Cc2coc(COC)c2)cc1 (stereo not shown) [Compound 514, N-hydroxy-2-{[(4-{[5-(methoxymethyl)furan-3-yl]ethynyl}phenyl)carbonyl](methyl)amino}-N′-methylpropanediamide]",< 10
7,"CNC(=O)C(C(=O)NO)N(C)C(=O)c1ccc(C#Cc2ccc(CN3CC4CC4C3)cc2)cc1 (stereo not shown) [Compound 515, 2-{[(4-{[4-(3-azabicyclo[3.1.0]hex-3-ylmethyl)phenyl]ethynyl}phenyl)carbonyl](methyl)amino}-N-hydroxy-N′-methylpropanediamide]",< 10
8,"CCn1cc(C#Cc2ccc(C(=O)N(C)C(C(=O)NC)C(=O)NO)cc2)cn1 (stereo not shown) [Compound 517, 2-[({4-[(1-ethyl-1H-pyrazol-4-yl)ethynyl]phenyl}carbonyl)(methyl)amino]-N-hydroxy-N′-methylpropanediamide]",10 to 100
9,"CN(C(=O)c1ccc(C#Cc2ccc(CN3CCCOCC3)cc2)cc1)C(C(=O)NO)C(=O)NCc1ccccn1 (stereo not shown) [Compound 520, N-hydroxy-2-{methyl[(4-{[4-(1,4-oxazepan-4-ylmethyl)phenyl]ethynyl}phenyl)carbonyl]amino}-N′-(pyridin-2-ylmethyl)propanediamide]",< 10
10,"CNC(=O)C(C(=O)NO)N(C)C(=O)c1ccc(C#Cc2ccc(CN3CC(C)(C)C3)cc2)cc1 (stereo not shown) [Compound 525, 2-[{[4-({4-[(3,3-dimethylazetidin-1-yl)methyl]phenyl}ethynyl)phenyl]carbonyl}(methyl)amino]-N-hydroxy-N′-methylpropanediamide]",10 to 100
11,"CCOC1CN(Cc2ccc(C#Cc3ccc(C(=O)N(C)C(C(=O)NC)C(=O)NO)cc3)c(F)c2)C1 (stereo not shown) [Compound 564, 2-[{[4-({4-[(3-ethoxyazetidin-1-yl)methyl]-2-fluorophenyl}ethynyl)phenyl]carbonyl}(methyl)amino]-N-hydroxy-N′-methylpropanediamide]",< 10

# Second part, the compound after the results:
row,IC50 [nM],Compound
1,< 10,"CNC(=O)C(C(=O)NO)N(C)C(=O)c1ccc(C#Cc2ccc(N3CCC(N4CCOCC4)CC3)cc2)cc1 (stereo not shown) [Compound 496, N-hydroxy-N′-methyl-2-(methyl {[4-({4-[4-(morpholin-4-yl)piperidin-1-yl]phenyl}ethynyl)phenyl]carbonyl}amino)propanediamide]"
2,< 10,"CNC(=O)C(C(=O)NO)N(C)C(=O)c1ccc(-c2ccc(-c3ccc(CO)o3)cc2)cc1 (stereo not shown) [Compound 499, N-hydroxy-2-[({4′-[5-(hydroxymethyl)furan-2-yl]biphenyl-4-yl}carbonyl)(methyl)amino]-N′-methylpropanediamide]"
3,< 10,"CCO/N=C/c1ccc(C#Cc2ccc(C(=O)N(C)C(C(=O)NC)C(=O)NO)cc2)o1 (stereo not shown) [Compound 501, 2-[{[4-({5-[(E)-(ethoxyimino)methyl]furan-2-yl}ethynyl)phenyl]carbonyl}(methyl)amino]-N-hydroxy-N′-methylpropanediamide]"
4,10 to 100,"CNC(=O)C(C(=O)NO)N(C)C(=O)c1ccc(-c2ccc(CCCN3CCCOCC3)cc2)cc1 (stereo not shown) [Compound 502, N-hydroxy-N′-methyl-2-[methyl({4′-[3-(1,4-oxazepan-4-yl)propyl]biphenyl-4-yl}carbonyl)amino]propanediamide]"
5,> 100,"CNC(=O)C(C(=O)NO)N(C)C(=O)c1ccc(C#CC2CC2)cc1 (stereo not shown) [Compound 503, 2-[{[4-(cyclopropylethynyl)phenyl]carbonyl}(methyl)amino]-N-hydroxy-N′-methylpropanediamide]"
6,< 10,"CNC(=O)C(C(=O)NO)N(C)C(=O)c1ccc(C#Cc2ccc(CN3CC(OC)C3)cc2)cc1 (stereo not shown) [Compound 505, N-hydroxy-2-[{[4-({4-[(3-methoxyazetidin-1-yl)methyl]phenyl}ethynyl)phenyl]carbonyl}(methyl)amino]-N′-methylpropanediamide]"
7,10 to 100,"CNC(=O)C(C(=O)NO)N(C)C(=O)c1ccc(C#Cc2ccc(COCC(C)(C)N)cc2)cc1 (stereo not shown) [Compound 508, 2-[{[4-({4-[(2-amino-2-methylpropoxy)methyl]phenyl}ethynyl)phenyl]carbonyl}(methyl)amino]-N-hydroxy-N′-methylpropanediamide]"
8,< 10,"CCCC(C)(C)CNCc1ccc(C#Cc2ccc(C(=O)N(C)C(C(=O)NC)C(=O)NO)cc2)cc1 (stereo not shown) [Compound 510, 2-[({4-[(4-{[(2,2-dimethylpentyl)amino]methyl}phenyl)ethynyl]phenyl}carbonyl)(methyl)amino]-N-hydroxy-N′-methylpropanediamide]"
9,10 to 100,"CCN1Cc2cc(C#Cc3ccc(C(=O)N(C)C(C(=O)NC)C(=O)NO)cc3)ccc2[C@H]1C (stereo partly drawn) [Compound 516, 2-{[(4-{[(1R)-2-ethyl-1-methyl-2,3-dihydro-1H-isoindol-5-yl]ethynyl}phenyl)carbonyl](methyl)amino}-N-hydroxy-N′-methylpropanediamide]"
10,10 to 100,"CNC(=O)C(C(=O)NO)N(C)C(=O)c1ccc(C#Cc2cnn(CCOC)c2)cc1 (stereo not shown) [Compound 518, N-hydroxy-2-{[(4-{[1-(2-methoxyethyl)-1H-pyrazol-4-yl]ethynyl}phenyl)carbonyl](methyl)amino}-N′-methylpropanediamide]"
11,< 10,"CN(C(=O)c1ccc(C#Cc2ccc(CN3CCCOCC3)cc2)cc1)C(C)(C(=O)NO)C(=O)NCc1ccccn1 (stereo not shown) [Compound 521, N-hydroxy-2-methyl-2-{methyl[(4-{[4-(1,4-oxazepan-4-ylmethyl)phenyl]ethynyl}phenyl)carbonyl]amino}-N′-(pyridin-2-ylmethyl)propanediamide]"
12,10 to 100,"CNC(=O)C(C(=O)NO)N(C)C(=O)c1ccc(C#CC2=CCCCC2)cc1 (stereo not shown) [Compound 523, 2-[{[4-(cyclohex-1-en-1-ylethynyl)phenyl]carbonyl}(methyl)amino]-N-hydroxy-N′-methylpropanediamide]"
13,10 to 100,"CNC(=O)C(C(=O)NO)N(C)C(=O)c1ccc(C#Cc2ccc(CN3CC4(CCC4)C3)cc2)cc1 (stereo not shown) [Compound 524, 2-{[(4-{[4-(2-azaspiro[3.3]hept-2-ylmethyl)phenyl]ethynyl}phenyl)carbonyl](methyl)amino}-N-hydroxy-N′-methylpropanediamide]"
14,< 10,"CNC(=O)C(C(=O)NO)N(C)C(=O)c1ccc(C#Cc2ccc(CN3CC(=CCOC)C3)cc2)cc1 (stereo not shown) [Compound 530, N-hydroxy-2-[({4-[(4-{[3-(2-methoxyethylidene)azetidin-1-yl]methyl}phenyl)ethynyl]phenyl}carbonyl)(methyl)amino]-N′-methylpropanediamide]"
15,< 10,"CCOC1CN(Cc2ccc(C#Cc3ccc(C(=O)N(C)C(C(=O)NC)C(=O)NO)cc3)cc2)C1 (stereo not shown) [Compound 535, 2-[{[4-({4-[(3-ethoxyazetidin-1-yl)methyl]phenyl}ethynyl)phenyl]carbonyl}(methyl)amino]-N-hydroxy-N′-methylpropanediamide]"
16,< 10,"CCOC1CN(Cc2ccc(C#Cc3ccc(C(=O)N(C)C(C(=O)NC)C(=O)NO)cc3)cc2C)C1 (stereo not shown) [Compound 562, 2-[{[4-({4-[(3-ethoxyazetidin-1-yl)methyl]-3-methylphenyl}ethynyl)phenyl]carbonyl}(methyl)amino]-N-hydroxy-N′-methylpropanediamide]"

# Same assay, conditions: inhibitory activity on Pseudomonas aeruginosa LpxC enzyme, class symbols A/B/C; read-out: Enzyme inhibitory activity
row,Compound,IC50 [nM]
1,"CNC(=O)C(C(=O)NO)N(C)C(=O)c1ccc(C#Cc2ccc(CN3Cc4ccccc4C3)cc2)cc1 (stereo not shown) [Compound 489, 2-{[(4-{[4-(1,3-dihydro-2H-isoindol-2-ylmethyl)phenyl]ethynyl}phenyl)carbonyl](methyl)amino}-N-hydroxy-N′-methylpropanediamide]",< 10
2,"CNC(=O)C(C(=O)NO)N(C)C(=O)c1ccc(C#CC#Cc2ccc(CN3CCN(C)CC3)cc2)cc1 (stereo not shown) [Compound 492, N-hydroxy-N′-methyl-2-(methyl {[4-(4-{4-[(4-methylpiperazin-1-yl)methyl]phenyl}buta-1,3-diyn-1-yl)phenyl]carbonyl}amino)propanediamide]",< 10
3,"CNC(=O)C(C(=O)NO)N(C)C(=O)c1ccc(C#CC#Cc2ccc(CNCC(C)(C)C)cc2)cc1 (stereo not shown) [Compound 493, 2-[({4-[4-(4-{[(2,2-dimethylpropyl)amino]methyl}phenyl)buta-1,3-diyn-1-yl]phenyl}carbonyl)(methyl)amino]-N-hydroxy-N′-methylpropanediamide]",< 10
